Laboratory results reported in ChEMBL document CHEMBL1124261 (J Med Chem, 1988).

Experiments:
L1210 [1] = experiment: Tested for cell-growth inhibition against mouse leukemic L1210 cells; assay type: functional, cell-based
L1210 [2] = experiment: Mean change in weight of mice infected with L1210 leukemia after 7 days after an intraperitoneal dose of 60 mg/kg; assay type: functional, Mus musculus
L1210 [3] = experiment: Mean survival of mice infected with L1210 leukemia after an intraperitoneal dose of 40 mg/kg for 9 days; assay type: functional, Mus musculus
L1210 [4] = experiment: Increase in life span of mice infected with L1210 leukemia after an intraperitoneal dose of 80 mg/kg for 9 days; assay type: functional; conditions: Mus musculus, L1210, ip, 216 h
L1210 [5] = experiment: Range for the survival of mice infected with L1210 leukemia after an intraperitoneal dose of 60 mg/kg for 9 days; Range is […]; assay type: functional, Mus musculus
L1210 ( R81) = experiment: Tested for cell-growth inhibition against mouse leukemic L1210/R81 cells; assay type: functional, cell-based
Dihydrofolate reductase = target: T1, Dihydrofolate reductase (Mus musculus, UniProt P00375); experiment: biochemical
T1 sequence (P00375 whole entry): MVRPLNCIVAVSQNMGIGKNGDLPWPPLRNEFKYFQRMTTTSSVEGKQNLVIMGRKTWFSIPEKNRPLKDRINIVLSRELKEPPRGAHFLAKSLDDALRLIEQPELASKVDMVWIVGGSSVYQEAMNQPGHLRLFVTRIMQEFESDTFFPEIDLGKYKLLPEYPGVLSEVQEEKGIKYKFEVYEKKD
Description: Tested for inhibition against purified Dihydrofolate reductase from L1210 murine leukemia cells

CCRF-CEM [6] = experiment: Tested for cell-growth inhibition against human leukemic lymphoblast CEM cells; assay type: functional, cell-based
Mus musculus = species on record: Mus musculus; experiment: (§1) Tested for inhibition against purified Folyl-polyglutamate synthase from mouse liver; assay type: functional; conditions: dose or concentration not given here
L1210 [7] = experiment: Range for the survival of mice infected with L1210 leukemia after an intraperitoneal dose of 20 mg/kg for 9 days; Range is 16-19; assay type: functional, Mus musculus
L1210 [8] = experiment: Range for the survival of mice infected with L1210 leukemia after an intraperitoneal dose of 40 mg/kg for 9 days; Range is 14-24; assay type: functional, Mus musculus
L1210 [9] = experiment: Mean change in weight of mice infected with L1210 leukemia after 7 days after an intraperitoneal dose of 80 mg/kg; assay type: functional, Mus musculus
L1210 [10] = experiment: Mean change in weight of mice infected with L1210 leukemia after 7 days after an intraperitoneal dose of 20 mg/kg; assay type: functional, Mus musculus
L1210 [11] = experiment: Increase in life span of mice infected with L1210 leukemia after an intraperitoneal dose of 40 mg/kg for 9 days; assay type: functional; conditions: Mus musculus, L1210, ip, 216 h
L1210 [12] = experiment: Mean change in weight of mice infected with L1210 leukemia after 7 days after an intraperitoneal dose of 40 mg/kg; assay type: functional, Mus musculus
L1210 [13] = experiment: Mean survival of mice infected with L1210 leukemia after an intraperitoneal dose of 20 mg/kg for 9 days; assay type: functional, Mus musculus
L1210 [14] = experiment: Range for the survival of mice infected with L1210 leukemia after an intraperitoneal dose of 80 mg/kg for 9 days; Range is 12-18; assay type: functional, Mus musculus
L1210 [15] = experiment: Increase in life span of mice infected with L1210 leukemia after an intraperitoneal dose of 60 mg/kg for 9 days; assay type: functional; conditions: Mus musculus, L1210, ip, 216 h
L1210 [16] = experiment: Increase in life span of mice infected with L1210 leukemia after an intraperitoneal dose of 20 mg/kg for 9 days; assay type: functional; conditions: Mus musculus, L1210, ip, 216 h
CCRF-CEM [17] = experiment: Tested for cell-growth inhibition against human leukemic lymphoblast CEM/MTX cells; assay type: functional, cell-based
L1210 [18] = experiment: Mean survival of mice infected with L1210 leukemia after an intraperitoneal dose of 80 mg/kg for 9 days; assay type: functional, Mus musculus
L1210 [19] = experiment: Mean survival of mice infected with L1210 leukemia after an intraperitoneal dose of 60 mg/kg for 9 days; assay type: functional, Mus musculus
L1210 [20] = experiment: Range for the survival of mice infected with L1210 leukemia after an intraperitoneal dose of 20 mg/kg for 9 days; Range is 14-16; assay type: functional, Mus musculus
L1210 [21] = experiment: Range for the survival of mice infected with L1210 leukemia after an intraperitoneal dose of 80 mg/kg for 9 days; Range is 9-16; assay type: functional, Mus musculus
L1210 [22] = experiment: Range for the survival of mice infected with L1210 leukemia after an intraperitoneal dose of 60 mg/kg for 9 days; Range is 17-19; assay type: functional, Mus musculus
[23] = target: T2, Folylpolyglutamate synthase, mitochondrial (Mus musculus, UniProt P48760); experiment: Inhibitory constant against purified Folyl-polyglutamate synthase from mouse liver
T2 sequence (P48760 whole entry): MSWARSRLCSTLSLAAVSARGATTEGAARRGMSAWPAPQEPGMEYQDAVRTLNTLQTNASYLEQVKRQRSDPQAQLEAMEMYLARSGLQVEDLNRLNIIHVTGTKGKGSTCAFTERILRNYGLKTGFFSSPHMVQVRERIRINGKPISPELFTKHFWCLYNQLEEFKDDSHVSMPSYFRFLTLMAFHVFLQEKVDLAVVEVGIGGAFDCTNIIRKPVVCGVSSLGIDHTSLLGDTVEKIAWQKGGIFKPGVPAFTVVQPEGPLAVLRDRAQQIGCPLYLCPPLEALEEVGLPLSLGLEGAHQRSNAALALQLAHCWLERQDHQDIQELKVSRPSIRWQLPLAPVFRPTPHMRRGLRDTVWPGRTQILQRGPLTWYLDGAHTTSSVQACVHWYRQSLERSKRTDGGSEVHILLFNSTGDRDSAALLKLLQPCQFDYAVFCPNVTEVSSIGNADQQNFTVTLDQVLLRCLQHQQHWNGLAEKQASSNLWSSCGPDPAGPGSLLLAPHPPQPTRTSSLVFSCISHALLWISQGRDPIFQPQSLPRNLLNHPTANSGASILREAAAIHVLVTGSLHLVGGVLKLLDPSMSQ

L1210 [24] = experiment: Range for the survival of mice infected with L1210 leukemia after an intraperitoneal dose of 40 mg/kg for 9 days; Range is 15-22; assay type: functional, Mus musculus
[25] = target: T3, Folylpolyglutamate synthase, mitochondrial (Mus musculus) (UniProt P48760); experiment: as §1; conditions: concentration not given here
T3 sequence (whole entry): T2 sequence (P48760 whole entry)

CN(Cc1cnc2nc(N)nc(N)c2n1)c1ccc(C(=O)NC(CCCCCCCCCC(=O)O)C(=O)O)cc1 (stereo not given) gave an IC50 (L1210 [1]) of 7.1 nM, a Weight change (L1210 [2]) of 5% and a Survival (L1210 [3]) of 17.2 days. The ILS at 80 mg/kg (L1210 [4]) was 73%, the Range (L1210 [5]) was 15 days and the IC50 (L1210 ( R81)) was 58000 nM. The IC50 (Dihydrofolate reductase) was 34 nM, the IC50 (CCRF-CEM [6]) was 16 nM and the inhibition (Mus musculus) was 53%. The Range (L1210 [7]) was 16 days, the Range (L1210 [8]) was 14 days and the Weight change (L1210 [9]) was 2%. The Weight change (L1210 [10]) was 6%, the ILS at 40 mg/kg (L1210 [11]) was 95% and the Weight change (L1210 [12]) was 3%. For the same compound, the Survival (L1210 [13]) was 17.4 days, the Range (L1210 [14]) was 12 days and the ILS at 60 mg/kg (L1210 [15]) was 100%. For the same compound, the ILS at 20 mg/kg (L1210 [16]) was 98%, the IC50 (CCRF-CEM [17]) was 10000 nM and the Survival (L1210 [18]) was 15.2 days. It also gave a Survival (L1210 [19]) of 17.6 days.

For CN(Cc1cnc2nc(N)nc(N)c2n1)c1ccc(C(=O)NC(CCCCCCC(=O)O)C(=O)O)cc1 (stereo not given), the Range (L1210 [20]) was 14 days, the IC50 (L1210 [1]) was 1.2 nM and the Weight change (L1210 [2]) was 4%. It also gave a Survival (L1210 [3]) of 17 days, an ILS at 80 mg/kg (L1210 [4]) of 43% and an IC50 (L1210 ( R81)) of 68000 nM. For the same compound, the IC50 (Dihydrofolate reductase) was 23 nM, the IC50 (CCRF-CEM [6]) was 150 nM and the Range (L1210 [21]) was 9 days. It also gave a Range (L1210 [22]) of 17 days, a Weight change (L1210 [9]) of -12% and a Weight change (L1210 [10]) of 4%. The Ki [23] was 320000 nM, the ILS at 40 mg/kg (L1210 [11]) was 93% and the Weight change (L1210 [12]) was -1%. It also gave a Range (L1210 [24]) of 15 days, a Survival (L1210 [13]) of 14.8 days and an ILS at 60 mg/kg (L1210 [15]) of 105%. The ILS at 20 mg/kg (L1210 [16]) was 68%, the inhibition [25] was 47% and the IC50 (CCRF-CEM [17]) was 5800 nM. For the same compound, the Survival (L1210 [18]) was 12.6 days and the Survival (L1210 [19]) was 18 days.
